Data reported in patent US5015631A, “Repairing agent for cells and tissues” (MECT Corporation, priority 1987, dated 1991).

Test system: mice
Assay: Simple acute toxicity test by intravenous injection in mice
Assay type: in vivo, Male ddy mice
Conditions: for Final death rate / Number of death with the elapse of time: 3 mice
Description: Simple acute toxicity test:
Simple acute toxicity tests of the materials were conducted by intraveous injections for the mice as follows:
Lithium, potassium, barium and magnesium N-acetylneuraminates (products of MECT Corporation) were used.
Weight of the animal in the initial stage of the test: 17.7 to 21.1 g
Number of mice for each level: 3
(3) Room temperature: 23±1° C., humidity: 55±7%
(4) Route of administration: intravenous injection
The material was dissolved in the physiological saline. The concentration of the dose solution was adjusted so that 0.2 ml of the dose solution was administered per 20 g of the body weight of the mice. The solution was given to a tail of each mouse by the intravenous injection. The dose was 500, 1000 or 2000 mg/kg.
The general symptoms and death were observed from immediately after the administration to seven days after the administration.

SMILES	Final death rate (500 mg/kg i.v.)	Number of death with the elapse of time (500 mg/kg i.v., 1 hr)	Number of death with the elapse of time (500 mg/kg i.v., 3 hrs)	Number of death with the elapse of time (500 mg/kg i.v., 6 hrs)	Number of death with the elapse of time (500 mg/kg i.v., 24 hrs)	Number of death with the elapse of time (500 mg/kg i.v., 2 days)	Number of death with the elapse of time (500 mg/kg i.v., 3 days)	Number of death with the elapse of time (500 mg/kg i.v., 4 days)	Number of death with the elapse of time (500 mg/kg i.v., 5 days)	Number of death with the elapse of time (500 mg/kg i.v., 6 days)	Number of death with the elapse of time (500 mg/kg i.v., 7 days)	Number of death with the elapse of time (1000 mg/kg i.v., 1 hr)	Number of death with the elapse of time (1000 mg/kg i.v., 3 hrs)	Number of death with the elapse of time (1000 mg/kg i.v., 6 hrs)	Number of death with the elapse of time (1000 mg/kg i.v., 24 hrs)	Number of death with the elapse of time (1000 mg/kg i.v., 2 days)	Number of death with the elapse of time (1000 mg/kg i.v., 3 days)	Number of death with the elapse of time (1000 mg/kg i.v., 4 days)	Number of death with the elapse of time (1000 mg/kg i.v., 5 days)	Number of death with the elapse of time (1000 mg/kg i.v., 6 days)	also measured
CC(=O)N[C@H]1[C@H]([C@H](O)[C@H](O)CO)OC(O)(C(=O)O)C[C@@H]1O (stereo partly shown) [Barium N-acetylneuraminate]	3/3	3	0	0	0	0	0	0	0	0	0	3	0	0	0	0	0	0	0	0	Number of death with the elapse of time (1000 mg/kg i.v., 7 days): 0; Number of death with the elapse of time (2000 mg/kg i.v., 1 hr): 3; Number of death with the elapse of time (2000 mg/kg i.v., 3 hrs): 0; Number of death with the elapse of time (2000 mg/kg i.v., 6 hrs): 0; Number of death with the elapse of time (2000 mg/kg i.v., 24 hrs): 0; Number of death with the elapse of time (2000 mg/kg i.v., 2 days): 0; Number of death with the elapse of time (2000 mg/kg i.v., 3 days): 0; Number of death with the elapse of time (2000 mg/kg i.v., 4 days): 0; Number of death with the elapse of time (2000 mg/kg i.v., 5 days): 0; Number of death with the elapse of time (2000 mg/kg i.v., 6 days): 0; Number of death with the elapse of time (2000 mg/kg i.v., 7 days): 0
CC(=O)N[C@H]1[C@H]([C@H](O)[C@H](O)CO)OC(O)(C(=O)[O-])C[C@@H]1O.[Li+] (stereo partly shown) [Lithium N-acetylneuraminate]	0/3	0	0	0	0	0	0	0	0	0	0	0	0	0	0	0	0	0	0	0	Final death rate (1000 mg/kg i.v.): 0/3; Number of death with the elapse of time (1000 mg/kg i.v., 7 days): 0; Final death rate (2000 mg/kg i.v.): 0/3; Number of death with the elapse of time (2000 mg/kg i.v., 1 hr): 0; Number of death with the elapse of time (2000 mg/kg i.v., 3 hrs): 0; Number of death with the elapse of time (2000 mg/kg i.v., 6 hrs): 0; Number of death with the elapse of time (2000 mg/kg i.v., 24 hrs): 0; Number of death with the elapse of time (2000 mg/kg i.v., 2 days): 0; Number of death with the elapse of time (2000 mg/kg i.v., 3 days): 0; Number of death with the elapse of time (2000 mg/kg i.v., 4 days): 0; Number of death with the elapse of time (2000 mg/kg i.v., 5 days): 0; Number of death with the elapse of time (2000 mg/kg i.v., 6 days): 0; Number of death with the elapse of time (2000 mg/kg i.v., 7 days): 0
CC(=O)N[C@H]1[C@H]([C@H](O)[C@H](O)CO)OC(O)(C(=O)O)C[C@@H]1O (stereo partly shown) [Magnesium N-acetylneuraminate]	0/3	0	0	0	0	0	0	0	0	0	0										
CC(=O)N[C@H]1[C@H]([C@H](O)[C@H](O)CO)OC(O)(C(=O)[O-])C[C@@H]1O.[K+] (stereo partly shown) [Potassium N-acetylneuraminate]	0/3	0	0	0	0	0	0	0	0	0	0	3	0	0	0	0	0	0	0	0	Final death rate (1000 mg/kg i.v.): 3/3; Number of death with the elapse of time (1000 mg/kg i.v., 7 days): 0; Death (1000 mg/kg or 2000 mg/kg i.v.): all of the three mice died; Final death rate (2000 mg/kg i.v.): 3/3; Number of death with the elapse of time (2000 mg/kg i.v., 1 hr): 3; Number of death with the elapse of time (2000 mg/kg i.v., 3 hrs): 0; Number of death with the elapse of time (2000 mg/kg i.v., 6 hrs): 0; Number of death with the elapse of time (2000 mg/kg i.v., 24 hrs): 0; Number of death with the elapse of time (2000 mg/kg i.v., 2 days): 0; Number of death with the elapse of time (2000 mg/kg i.v., 3 days): 0; Number of death with the elapse of time (2000 mg/kg i.v., 4 days): 0; Number of death with the elapse of time (2000 mg/kg i.v., 5 days): 0; Number of death with the elapse of time (2000 mg/kg i.v., 6 days): 0; Number of death with the elapse of time (2000 mg/kg i.v., 7 days): 0
